Earlier results on 1 substance are cited in patent US4771122A, “Novel cyclosporins” (Sandoz Ltd., priority 1985, dated 1988).

For the series the following is noted: reported in literature.

With [(D)Pro]^3 -Cyclosporine, the immunosuppressive activity entry is given as “substantially lacking in immunosuppressive activity”.
